How the values were obtained:
Assay type in all cases: in vivo, mouse
histone H3 and H4 = assay: Histone acetylation in the brain (western blot); conditions: within an hour of i.p. administration; Vo 50 mg/Kg in PEG; HPBCD 2000 mg/Kg
Experimental: Npc1^nmf164 mice (6-7 weeks) were injected with either Vorinostat (50 mg/kg) or TCF through i.p route. Mice were sacrificed 1 hpi (1 hour post-injection) by asphyxiation using CO2. After homogenization of tissue, Histones were extracted using EpiQuik Total Histone extraction kit (Epigentek, NY, USA) as per manufacturer's instructions. Antibodies to Histone H3 (Lys14) and H4 (Lys5/8/12/16) from Millipore (CA, USA) were used in western blotting.

Calbindin1 transcripts = assay: qPCR of Calbindin1 transcripts in the brain; conditions: day 100, once weekly dosing; Vo 50 mg/Kg; 2×HPBCD 4000 mg/Kg; TCF
Experimental: (§1) Vorinostat (50 mg/Kg)—Vorinostat was first dissolved in DMSO (100 mg/ml) and then diluted with 9 volume of Polyethylene Glycol 400 (PEG). This drug solution was named as ‘solution A’. Solution A was diluted with equal volume of water where the final concentration of each component was as follows; Vorinostat, 5 mg/ml; DMSO, 5% and PEG, 45%. Mice were given weekly intraperitoneal (i.p) injections starting at 21 days. Vorinostat (100 mg/Kg)—Vorinostat was first dissolved in DMSO (200 mg/ml) and then mixed with 9 volumes of PEG. Rest of the methods and injections plan were as described above. HPBCD (4000 mg/Kg)—40% HPBCD solution prepared in water. Mice were given weekly i.p injections starting at 7 days. HPBCD (2000 mg/Kg)—20% HPBCD solution prepared in water. Mice were given weekly i.p injections starting at 7 days. TCF (Vorinostat, 50 mg/Kg+HPBCD, 2000 mg/Kg, DMSO, 5%+PEG, 45%)—To prepare the formulation, the ‘solution A’ was first prepared as described above and equal volume of 40% HPBCD solution was slowly layered on top of it. The solution was gently mixed for 10 min at RT on rocker set at medium speed. […]
(§2) Quantitative PCR (qPCR) was performed using Power SYBR Green RNA-to-CT 1-Step Kit and an ABI Prism 7500 Fast real-time PCR system (Applied Biosystems, Grand Island, USA). […] The relative amount of transcript was determined using comparative CT method. […]

Purkinje cells = assay: Calbindin immunofluorescence, Purkinje cell count in cerebellar sections; conditions: day 100, once weekly dosing
Experimental: Mice were sacrificed by asphyxiation using CO2. Harvested organs were immersed fixed in 10% neutral buffered formalin (˜4% formaldehyde) for 24 hrs at RT. The organs were subsequently stored in 70% alcohol at RT until transfer to paraffin. Paraffin-embedded tissue sections (4-5 μm) were dewaxed in xylene and alcohol. Calbindin antigen retrieval was done by pre-incubating deparaffinized samples with 0.05% proteinase K (Dako, Germany) in 50 mM Tris-HCl (pH 7.5) for 8 min at RT. CTSS and NPC1 was retrieved by boiling the sections in acidic condition for 30 min. Blocking was done either with 2% goat serum (for calbindin and NPC1) or 2% rabbit serum (for cathepsin S) for 30 min at RT. Sections were incubated with anti-calbindin (1:1000, C9848, Sigma), anti-cathepsin S (20 μg/ml, M-19, Santa Cruz Biotechnology), anti-NPC1 (custom made against human NPC1 protein, 20 μg/ml) overnight at 4° C. The appropriate FITC or TRITC-conjugated secondary IgG (MP Biomedicals, Solon, Ohio, USA) antibodies were used at 1:200 dilution. Sections were subsequently washed with PBS containing DAPI (0.5 μg/ml). Vectashield (Vector laboratories) was used as mounting medium and processed for fluorescence microscopy.
Tissue sections after IFA and filipin stained fibroblasts were visualized with 40× oil-immersion objective lens (NA 1.35). Filipin stain was visualized using DAPI filter. Digital image collection were performed using an Olympus IX inverted fluorescence microscope and a Photometrix cooled CCD camera (CH350/LCCD) driven by DeltaVision software from Applied Precision (Seattle, Wash., USA). DeltaVision software (softWoRx) was used to deconvolve these images. Images are single optical sections. Images were analyzed using ImageJ software (NIH, MD, USA).

Npc1^nmf164 mice = assay: Neurobehavioral assessment (cumulative disease score 0-13); conditions: for cumulative neurobehavioral disease score: at 105-112 days, scale 0-13, Vo 50 mg/Kg, 2×HPBCD 4000 mg/Kg, TCF; for onset of individual symptoms (gait, grooming, limb tone, weight): weekly i.p. treatment
Experimental: A modified version of previously described method (Carroll et al., 2010) was used for assessing the neurobehavioral functions in mice. Six different parameters (FIG. 3A) associated with neurobehavioral functions of mice were assessed. Each mouse was assessed individually in an observation box (length, 31.8 cm, width, 19.8 cm and height, 10.5 cm) with a grid floor. A mouse was assessed for tremor (0 and 2), body position (0, 1 and 2), gait (0, 1 and 2), grooming (0, 1 and 2), limb tone (0, 1 and 2), and weight loss (0, 1, 2 and 3). For each symptom except weight, a mouse received a score 0 if no symptom was observed and score 2 when the most severe impairment in the function was seen. A mouse was given score 0 for weight loss below 5%, 1 for 5-10%, 2 for >10 and up to 20%, and 3 for >20 up to 30%. A cumulative score of 0-3 correlate with no neurobehavioral impairment and a score of 13 is the most impaired neurobehavioral function. Operator-independence scoring was also tested by two independent blinded operators on 6 NPC (Npc1^nmf164) and 4 healthy control (Npc1^+/nmf164) mice.

Npc1 transcript = assay: qPCR of Npc1 transcript in brain; conditions: at 100 days
Experimental: as §1, §2

CC(O)COC[C@H]1O[C@@H]2O[C@H]3[C@H](O)[C@@H](O)[C@@H](O[C@H]4[C@H](O)[C@@H](O)[C@@H](O[C@H]5[C@H](O)[C@@H](O)[C@@H](O[C@H]6[C@H](O)[C@@H](O)[C@@H](O[C@H]7[C@H](O)[C@@H](O)[C@@H](O[C@H]8[C@H](O)[C@@H](O)[C@@H](O[C@H]1[C@H](O)[C@H]2O)O[C@@H]8COCC(C)O)O[C@@H]7COCC(C)O)O[C@@H]6COCC(C)O)O[C@@H]5COCC(C)O)O[C@@H]4COCC(C)O)O[C@@H]3COCC(C)O (stereo partly drawn) [HPBCD, 2-Hydroxypropyl-β-cyclodextrin]
acetylation of histone 3 or 4 (H3 or H4) in the brain (in words) (histone H3 and H4): neither vehicle control (PEG+DMSO) nor HPBCD stimulated significant acetylation | expression of calbindin transcripts in the brain (Calbindin1 transcripts): no change or depressed levels of calbindin transcripts | Purkinje cells in the cerebellum (in words) (Purkinje cells): Few lightly stained Purkinje cells | Purkinje cells in the cerebellum (in words) (Purkinje cells; listed as 2×HPBCD): minor protection of Purkinje cell | cumulative neurobehavioral disease score (Npc1^nmf164 mice): 6-8 | onset of individual symptoms (gait, grooming, limb tone, weight) (Npc1^nmf164 mice): Worsening in gait, grooming and weight were also delayed by 2×HPBCD, but less so than by the TCF | Npc1 transcript levels in the brain (Npc1 transcript): little or no effect on brain Npc1 transcript levels

O=C(CCCCCCC(=O)Nc1ccccc1)NO [vorinostat]
acetylation of histone 3 or 4 (H3 or H4) in the brain (in words) (histone H3 and H4): low levels of acetylation | expression of calbindin transcripts in the brain (Calbindin1 transcripts): no change or depressed levels of calbindin transcripts | Purkinje cells in the cerebellum (in words) (Purkinje cells): no effect | Purkinje cells in the cerebellum (in words) (Purkinje cells; listed as Vo): Loss of Purkinje cells | cumulative neurobehavioral disease score (Npc1^nmf164 mice): 9-11 | onset of individual symptoms (gait, grooming, limb tone, weight) (Npc1^nmf164 mice): no consistent, significant advantage in any symptomatic read out | Npc1 transcript levels in the brain (Npc1 transcript): little or no effect on brain Npc1 transcript levels

From patent US10413517B2, “Composition and method for the treatment of neurological diseases and cerebral injury” (UNIVERSITY OF NOTRE DAME DU LAC, priority 2014, dated 2019)
